The subject of one experiment is K562. Put plainly: Antiproliferative activity against human K562 cells assessed as reduction in cell viability at 250 ug/ml by MTT assay relative to control. In kind it is functional. The settings on record: dose 250 µg/ml. (In general: Formazan colour is commonly taken as a measure of viable cells.)
The next experiment relates to SGC-7901. Put plainly: Antiproliferative activity against human SGC-7901 cells assessed as reduction in cell viability at 250 ug/ml by MTT assay relative to control. The settings on record: dose 250 µg/ml. In kind it is functional.
Experiment [1] concerns the target T1, Urease subunit alpha/Urease subunit beta (Helicobacter pylori (strain ATCC 700392 / 26695) (Campylobacterpylori), UniProt P69996). Put plainly: Inhibition of Helicobacter pylori urease. In kind it is protein-complex assay.
A further experiment relates to HepG2. Briefly: Antiproliferative activity against human HepG2 cells assessed as reduction in cell viability at 250 ug/ml by MTT assay relative to control. The settings on record: dose 250 µg/ml. In kind it is functional.
In experiment [2] the target is T1, Urease subunit alpha/Urease subunit beta. Put plainly: Mixed type inhibition of Helicobacter pyroli urease assessed as dissociation constant for ESI complex by microplate reader analysis. In kind it is protein-complex assay.
The target in experiment [3] is T2, Urease subunit alpha/Urease subunit beta (Helicobacter pylori (strain ATCC 700392 / 26695) (Campylobacterpylori)) (UniProt P69996+P14916). Put plainly: Potency index, ratio of acetohydroxamic acid IC50 to test compound IC50 for inhibition of Helicobacter pylori urease. In kind it is protein-complex assay.
T2 sequence (P14916 whole entry, looked up): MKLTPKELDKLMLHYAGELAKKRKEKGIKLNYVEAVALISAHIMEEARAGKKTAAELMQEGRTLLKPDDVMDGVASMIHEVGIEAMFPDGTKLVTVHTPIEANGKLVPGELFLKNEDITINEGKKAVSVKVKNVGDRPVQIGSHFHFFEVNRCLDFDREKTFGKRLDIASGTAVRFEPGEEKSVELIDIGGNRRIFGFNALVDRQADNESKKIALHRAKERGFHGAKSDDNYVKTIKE
T2 sequence (P69996 whole entry, looked up): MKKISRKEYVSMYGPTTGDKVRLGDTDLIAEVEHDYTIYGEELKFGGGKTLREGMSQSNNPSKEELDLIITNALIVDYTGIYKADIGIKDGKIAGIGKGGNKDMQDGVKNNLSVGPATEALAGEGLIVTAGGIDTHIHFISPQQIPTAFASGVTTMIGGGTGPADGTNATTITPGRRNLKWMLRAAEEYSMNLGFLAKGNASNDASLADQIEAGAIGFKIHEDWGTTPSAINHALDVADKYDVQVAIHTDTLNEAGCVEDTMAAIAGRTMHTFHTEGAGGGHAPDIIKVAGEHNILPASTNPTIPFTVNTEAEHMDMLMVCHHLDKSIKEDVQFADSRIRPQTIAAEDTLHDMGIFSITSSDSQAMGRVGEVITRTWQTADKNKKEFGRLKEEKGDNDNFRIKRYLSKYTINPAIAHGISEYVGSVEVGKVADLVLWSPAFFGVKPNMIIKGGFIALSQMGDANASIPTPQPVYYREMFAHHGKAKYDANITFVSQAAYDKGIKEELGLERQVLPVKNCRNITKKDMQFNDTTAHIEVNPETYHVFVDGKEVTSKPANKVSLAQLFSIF
In experiment [4] the target is T2, Urease subunit alpha/Urease subunit beta (Helicobacter pylori (strain ATCC 700392 / 26695) (Campylobacterpylori)). Put plainly: Inhibition of Helicobacter pyroli urease assessed as maximum inhibition at 100 ug/ml measured after 50 mins […]. The experiment is classed as protein-complex assay. The settings on record: dose 100.0 µg/ml. (In general: SPR reads the build-up and loss of mass on a sensor chip optically.)

For experiment [5] the target is unchanged. Briefly: Inhibition of Helicobacter pyroli urease at 100 ug/ml […]. The settings on record: dose 100.0 µg/ml, time <= 120.0 min, TDE = time-dependent effect. The experiment is classed as protein-complex assay.
For experiment [6], the target named is T1, Urease subunit alpha/Urease subunit beta. Put plainly: Mixed type inhibition of Helicobacter pyroli urease assessed as dissociation constant for EI complex by microplate reader analysis. The experiment is classed as protein-complex assay.
Experiment [7] shares this target. Briefly: Binding affinity to Helicobacter pyroli urease assessed as dissociation constant by surface plasmon resonance assay. In kind it is protein-complex assay.

14 molecules from ChEMBL document CHEMBL5150033, “Synthesis, evaluation and mechanism exploration of 2-(N-(3-nitrophenyl)-N-phenylsulfonyl)aminoacetohydroxamic acids as novel urease inhibitors” (Bioorg Med Chem Lett, 2022) can be followed below.

The structures appear in SMILES notation. Activity calls are given as the source filed them. The calls are words filed in the database; no cut-off is given here.

T1 sequence (P69996 whole entry): as the sequence (P69996 whole entry, looked up) above
T1 sequence (P14916 whole entry, further chain): as the sequence (P14916 whole entry, looked up) above

In the case of `O=C(CN(c1cccc([N+](=O)[O-])c1)S(=O)(=O)c1ccccc1F)NO`, the Activity with K562 stood at 87%; with SGC-7901, 92%; with HepG2 it was 80%. For the same molecule, the IC50 in experiment [1] is 6.9 µM.

On to `O=C(CN(c1cccc([N+](=O)[O-])c1)S(=O)(=O)c1cc(Cl)ccc1Cl)NO`, for which the Activity in the experiment with K562 is 84%; in the experiment with SGC-7901, 81%; in the experiment on HepG2 it was 80%. Further, the 50% inhibitory concentration (IC50) in experiment [1] worked out at 27.5 µM.

As for `Cc1ccccc1S(=O)(=O)N(CC(=O)NO)c1cccc([N+](=O)[O-])c1`, the Activity with K562 is 90%; in the experiment on SGC-7901, 90%; in the experiment with HepG2 it was 87%. For the same molecule, in experiment [1], the IC50 amounted to 7.1 µM.

Turning to `O=C(CN(c1cccc([N+](=O)[O-])c1)S(=O)(=O)c1ccc(C(F)(F)F)cc1)NO`, the Activity is reported as 87% in the experiment with K562, 90% with SGC-7901 and 93% in the experiment with HepG2. Also, the IC50 in experiment [1] was 9.57 µM.

Regarding `O=C(CN(c1cccc([N+](=O)[O-])c1)S(=O)(=O)c1ccccc1Cl)NO`, the figures for the Activity in the experiment on K562, in the experiment on SGC-7901 and in the experiment on HepG2 were 91%, 90% and 93%, respectively. This molecule had a half-maximal inhibitory concentration (IC50) in experiment [1] of 22 µM.

Take `Cc1ccc(S(=O)(=O)N(CC(=O)NO)c2cccc([N+](=O)[O-])c2)cc1`: the Activity was 86% in the experiment with K562, 84% with SGC-7901 and 80% in the experiment on HepG2. This molecule also registered an IC50 in experiment [1] of 5.91 µM.

As for `O=C(CN(c1cccc([N+](=O)[O-])c1)S(=O)(=O)c1ccc(Cl)cc1)NO`, the Activity in the experiment with K562 is on record as 88%; in the experiment on SGC-7901, 89%; in the experiment on HepG2, 86%. The molecule further gave an IC50 in [1] of 1.75 µM.

For `CC(=O)NO` [ACETOHYDROXAMIC ACID], the Activity with K562 came to 64%; in the experiment with SGC-7901 it was 72%; in the experiment with HepG2 it was 76%. In [1], this molecule gave a half-maximal inhibitory concentration (IC50) of 26.3 µM.

For the molecule `O=C(CN(c1cccc([N+](=O)[O-])c1)S(=O)(=O)c1ccc(Br)cc1)NO`, the results for the Activity in the experiment on K562, in the experiment on SGC-7901 and with HepG2 were 87%, 86% and 91%, respectively. In addition, the Ki in experiment [2] turned out to be 1.2 µM; in experiment [6], 0.065 µM. Also, the Ratio IC50 in [3] turned out to be 200. In addition, the inhibition entry in [4] is “Active”. Further, the inhibition result in [5] is “Tde”. Also, the Kd in [7] was 0.00034 µM. The molecule further came in with a half-inhibitory concentration (IC50) in experiment [1] of 0.13 µM.

With `Cc1cc(C)c(S(=O)(=O)N(CC(=O)NO)c2cccc([N+](=O)[O-])c2)c(C)c1`, the values for the Activity with K562, with SGC-7901 and with HepG2 were 94%, 85% and 87%, respectively. This molecule also returned an IC50 in [1] of 96.4 µM.

For `O=C(CN(c1cccc([N+](=O)[O-])c1)S(=O)(=O)c1cc(F)ccc1F)NO`, the Activity in the experiment on K562 came to 88%; in the experiment with SGC-7901, 92%; with HepG2, 89%. This molecule gave an IC50 in experiment [1] of 16.4 µM.

Consider `O=C(CN(c1cccc([N+](=O)[O-])c1)S(=O)(=O)c1ccccc1)NO`, for which the Activity was found to be 76% in the experiment with K562, 79% in the experiment on SGC-7901 and 83% in the experiment on HepG2. Further, in [1], the 50% inhibitory concentration (IC50) came to 2.41 µM.

Take `O=C(CN(c1cccc([N+](=O)[O-])c1)S(=O)(=O)c1cccc(F)c1)NO`: the Activity in the experiment with K562 is on record as 93%; in the experiment with SGC-7901, 90%; in the experiment with HepG2 it was 89%. Moreover, the Ratio IC50 in experiment [3] worked out at 35. Also, the IC50 in [1] stood at 0.74 µM.

For the molecule `O=C(CN(c1cccc([N+](=O)[O-])c1)S(=O)(=O)c1ccc(F)cc1)NO`, the results for the Activity with K562, in the experiment on SGC-7901 and with HepG2 were 92%, 90% and 91%, respectively. This molecule came in with an IC50 in experiment [1] of 3.33 µM.

What is called IC50 is the midpoint of a concentration-inhibition curve. A low value points to inhibition by little substance. The Ki is the dissociation constant of the complex between target and ligand, obtained from inhibition or displacement. As usually defined, the Kd is the free concentration of one partner at which half of the binding sites on the other are occupied at equilibrium, for simple one-to-one binding.
